Measured values: patent US20190335749A1, “Adjustable Release Pesticide Tablet Formulations” (priority 2018, published 2019)

Columns and labels:
[1] = cited from earlier work
[2] = TFM release rate in flow chamber, 11 L of water per minute; format: physicochemical; details: flow of 11 L of water per minute; 20 g TFM; FIG. 8, FIG. 9
From the text: To scale up from the tablet press, a hand-driven compression clamp was assembled in a fashion to create a compressed 20 g TFM cylinder 1 inch in diameter or combination of tablets adding to 20 g total TFM. Variables investigated were matrix type (tea bag vs porous cotton mesh), tablet size, formulation, and compression strength of formulation. The resulting tablets were placed into a flow chamber with a flow of 11 L of water per minute and aliquots were taken at designated time periods to evaluate TFM release rates.
Tablets H, I and J were all prepared according to Tablet E except that increasing amounts of sand were added as a density modifier to ensure tablets remained submerged.

SMILES | solubility in water [1] | TFM release rate [2]
[Cu+2].[OH-].[OH-] [Copper hydroxide] | extremely low solubility | 
O=C(O)COc1ccc(Cl)cc1Cl [neutral 2,4-D, 2,4-Dichlorophenoxyacetic Acid] | less water soluble | 
O=[N+]([O-])c1ccc([O-])cc1C(F)(F)F.[K+] [TFM phenoxide salt] |  | releases the fastest
